Among the data in US9994587B2, “HIV protease inhibitors” (priority 2014, dated 2018) are IC50 values, retold here.

The target in this assay is T1, wildtype HIV-1 protease (Human immunodeficiency virus type 1 group M subtype B, UniProt P04585).
T1 construct: preincubated with the HIV-1 protease (wild type) enzyme in assay buffer; made in house; host or cells: Escherichia coli
Nature of the assay: Assay for inhibition of microbial expressed HIV protease (Pepcleav). The format is biochemical. To be noted: wild type HIV-1 protease 20 pM, peptide substrate 400 micromolar, pH 5.5; mean of at least two independent experiments. In short, it runs like this:
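E. coli-expressed enzyme preincubated with inhibitor 30 min at room temperature in 50 mM sodium acetate pH 5.5, 100 mM NaCl, 0.1% BSA, then 400 micromolar peptide substrate added with 20 picomolar protease (final), 1 h at 30° C. Product quantified by LC-MS/MS peak area after formic acid/indinavir quench.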
On to `N[C@H](C(=O)Nc1c(CC[C@@H]2CNC[C@@H](CSc3ccc(Cl)cc3)O2)cc[nH]c1=O)C(c1ccccc1)c1ccccc1` [Example 88, N-(4-{2-[(2R,6S)-6-{[(4-chlorophenyl)sulfanyl]methyl}morpholin-2-yl]ethyl}-2-oxo-1,2-dihydropyridin-3-yl)-β-phenyl-L-phenylalaninamide], for which the IC50 stood at 0.04 nM. That is a picomolar value.
To `N[C@H](C(=O)Nc1cncc(F)c1CC[C@@H]1CNC[C@@H](COC(=O)NCCc2ccccc2)O1)C(c1ccc(F)cc1)c1ccc(F)cc1` [Example 130, 4-fluoro-β-(4-fluorophenyl)-N-(5-fluoro-4-{2-[(2R,6S)-6-({[(2-phenylethyl)carbamoyl]oxy}methyl)morpholin-2-yl]ethyl}pyridin-3-yl)-L-phenylalaninamide] belongs 8.8 nM; to `COC(=O)N[C@H](C(=O)Nc1n[nH]cc1CC[C@@H]1CNC[C@@H](COc2ccc(S(C)(=O)=O)cc2)O1)C(c1ccccc1)c1ccccc1` [Example 115, Nα-(methoxycarbonyl)-N-(4-{2-[(2R,6S)-6-{[4-(methylsulfonyl)phenoxy]methyl}morpholin-2-yl]ethyl}-1H-pyrazol-3-yl)-β-phenyl-L-phenylalaninamide], 370 nM; to `CC(C)COC[C@@H]1CNC[C@@H](CCc2c(F)cncc2NC(=O)[C@@H](N)C(c2ccc(F)cc2)c2ccc(F)cc2)O1` [Example 132, 4-fluoro-N-[5-fluoro-4-(2-{(2R,6S)-6-[(2-methylpropoxy)methyl]morpholin-2-yl}ethyl)pyridin-3-yl]-β-(4-fluorophenyl)-L-phenylalaninamide], 430 nM.
To `COC(=O)N[C@H](C(=O)Nc1ccccc1CCC1CNC[C@@H](COc2ccccc2-c2cc[nH]n2)O1)C(c1ccccc1)c1ccccc1` (stereo in doubt) [Example 110, Nα-(methoxycarbonyl)-β-phenyl-N-(2-{2-[(2R,6S)-6-{[2-(1H-pyrazol-3-yl)phenoxy]methyl}morpholin-2-yl]ethyl}phenyl)-L-phenylalaninamide] belongs 250 nM; to `COC(=O)N[C@H](C(=O)Nc1c(CC[C@@H]2CNC[C@@H](COc3ccc(C#N)cc3)O2)cc[nH]c1=O)C(c1ccccc1)c1ccccc1` [Example 86, N-[4-(2-{(2R,6S)-6-[(4-cyanophenoxy)methyl]morpholin-2-yl}ethyl)-2-oxo-1,2-dihydropyridin-3-yl]-Nα-(methoxycarbonyl)-β-phenyl-L-phenylalaninamide], 4.1 nM.
The figure for `COC(=O)N[C@H](C(=O)Nc1ccccc1CC[C@@H]1CNC[C@@H](CSc2ccc(Cl)cc2)O1)[C@H](c1ccccc1)c1ccncc1` [Example 69, (βR)-N-(2-{2-[(2R,6S)-6-{[(4-chlorophenyl)sulfanyl]methyl}morpholin-2-yl]ethyl}phenyl)-Nα-(methoxycarbonyl)-β-pyridin-4-yl-L-phenylalaninamide] is 0.3 nM; for `N[C@H](C(=O)Nc1cncc(F)c1CC[C@@H]1CNCC2(CCCC2)O1)C(c1ccccc1)c1ccccc1` [Example 131, N-(5-fluoro-4-{2-[(7R)-6-oxa-9-azaspiro[4.5]dec-7-yl]ethyl}pyridin-3-yl)-β-phenyl-L-phenylalaninamide] it is 300 nM.
`COC(=O)N[C@H](C(=O)Nc1ccccc1CC[C@@H]1CNC[C@@H](COc2ccccc2F)O1)C(c1ccccc1)c1ccccc1` [Example 49, N-[2-(2-{(2R,6S)-6-[(2-fluorophenoxy)methyl]morpholin-2-yl}ethyl)phenyl]-Nα-(methoxycarbonyl)-β-phenyl-L-phenylalaninamide] came in with an IC50 of 14 nM.
Consider `C#C[C@@H]1CNC[C@@H](CCc2ccccc2NC(=O)[C@@H](NC(=O)OC)C(c2ccccc2)c2ccccc2)O1` [Example 111, N-(2-{2-[(2R,6R)-6-ethynylmorpholin-2-yl]ethyl}phenyl)-Nα-(methoxycarbonyl)-β-phenyl-L-phenylalaninamide], for which the concentration for half-maximal inhibition (IC50) came to 580 nM.
To `COC(=O)N[C@H](C(=O)Nc1ccccc1CC[C@@H]1CNC[C@@H](COc2ccc3ncsc3c2)O1)C(c1ccccc1)c1ccccc1` [Example 48, N-[2-(2-{(2R,6S)-6-[(1,3-benzothiazol-6-yloxy)methyl]morpholin-2-yl}ethyl)phenyl]-Nα-(methoxycarbonyl)-β-phenyl-L-phenylalaninamide] belongs 5.5 nM; to `COC(=O)N[C@H](C(=O)Nc1ccccc1CC[C@@H]1CNC[C@@H](COc2cccc3cc[nH]c23)O1)C(c1ccccc1)c1ccccc1` [Example 38, N-[2-(2-{(2R,6S)-6-[(1H-indol-7-yloxy)methyl]morpholin-2-yl}ethyl)phenyl]-Na-(methoxycarbonyl)-b-phenyl-L-phenylalaninamide], 240 nM.
The figure for `COC(=O)N[C@H](C(=O)Nc1cccnc1CC[C@@H]1CNC[C@@H](CSc2ncccc2Cl)O1)C(c1ccccc1)c1ccccc1` [Example 80, N-(2-{2-[(2R,6S)-6-{[(3-chloropyridin-2-yl)sulfanyl]methyl}morpholin-2-yl]ethyl}pyridin-3-yl)-Nα-(methoxycarbonyl)-β-phenyl-L-phenylalaninamide] is 58 nM; for `COC(=O)N[C@H](C(=O)Nc1ccccc1CC[C@@H]1CNC[C@@H](CSc2ccc(Cl)cc2C)O1)C(c1ccccc1)c1ccccc1` [Example 26, methyl N-[(1S)-1-benzhydryl-2-[[2-[2-[(2R,6S)-6-[(4-chloro-2-methyl-phenyl)sulfanylmethyl]morpholin-2-yl]ethyl]phenyl]amino]-2-oxo-ethyl]carbamate] it is 1.3 nM.
The figure for `N[C@H](C(=O)Nc1cncc(F)c1CC[C@@H]1CNC[C@@H](COC(=O)NCC(F)(F)F)O1)C(c1ccc(F)cc1)c1ccc(F)cc1` [Example 123, 4-fluoro-β-(4-fluorophenyl)-N-(5-fluoro-4-{2-[(2R,6S)-6-({[(2,2,2-trifluoroethyl)carbamoyl]oxy}methyl)morpholin-2-yl]ethyl}pyridin-3-yl)-L-phenylalaninamide] is 16 nM.
`COC(=O)N[C@H](C(=O)Nn1c(CC[C@@H]2CNC[C@@H](COc3ccc(C#N)cc3)O2)cccc1=O)C(c1ccccc1)c1ccccc1` [Example 90, N-[6-(2-{(2R,6S)-6-[(4-cyanophenoxy)methyl]morpholin-2-yl}ethyl)-2-oxopyridin-1 (2H)-yl]-Nα-(methoxycarbonyl)-β-phenyl-L-phenylalaninamide] gave an IC50 of 53.3 nM. Against the preceding molecule, the IC50 is about 3.3-fold higher.
Regarding `COC(=O)N[C@H](C(=O)Nc1ccccc1CC[C@@H]1CNC[C@@H](COc2ccc(C#N)cc2C)O1)C(c1ccccc1)c1ccccc1` [Example 29, methyl N-[(1S)-1-benzhydryl-2-[[2-[2-[(2R,6S)-6-[(4-cyano-2-methyl-phenoxy)methyl]morpholin-2-yl]ethyl]phenyl]amino]-2-oxo-ethyl]carbamate], the IC50 was found to be 17 nM.
The figure for `COC(=O)N[C@H](C(=O)Nc1ccccc1CC[C@@H]1CNC[C@@H](COc2ccc(Br)cc2[N+](=O)[O-])O1)C(c1ccccc1)c1ccccc1` [Example 10, methyl N-[(1S)-1-benzhydryl-2-[[2-[2-[(2R,6S)-6-[(4-bromo-2-nitro-phenoxy)methyl]morpholin-2-yl]ethyl]phenyl]amino]-2-oxo-ethyl]carbamate] is 120 nM; for `COC(=O)N[C@H](C(=O)Nc1c(F)cccc1CC[C@@H]1CNC[C@@H](CSc2nc3cc(F)c(Cl)cc3[nH]2)O1)C(c1ccccc1)c1ccccc1` [Example 77, N-(2-{2-[(2R,6S)-6-{[(6-chloro-5-fluoro-1H-benzimidazol-2-yl)sulfanyl]methyl}morpholin-2-yl]ethyl}-6-fluorophenyl)-Nα-(methoxycarbonyl)-β-phenyl-L-phenylalaninamide] it is 11 nM; for `COC(=O)N[C@H](C(=O)Nc1ccccc1CC[C@@H]1CNC[C@@H](COc2ccc3cc[nH]c3c2)O1)C(c1ccccc1)c1ccccc1` [Example 39, N-[2-(2-{(2R,6S)-6-[(1H-indol-6-yloxy)methyl]morpholin-2-yl}ethyl)phenyl]-Na-(methoxycarbonyl)-b-phenyl-L-phenylalaninamide] it is 100 nM.
`N#Cc1cccc(SC[C@@H]2CNC[C@@H](CCc3c(F)cncc3NC(=O)[C@@H](N)C(c3ccc(F)cc3)c3ccc(F)cc3)O2)c1` [Example 102, N-(4-{2-[(2R,6S)-6-{[(3-cyanophenyl)sulfanyl]methyl}morpholin-2-yl]ethyl}-5-fluoropyridin-3-yl)-4-fluoro-β-(4-fluorophenyl)-L-phenylalaninamide] had an IC50 of 0.47 nM.
To `COC(=O)N[C@H](C(=O)Nc1ccccc1CC[C@@H]1CNC[C@@H](COc2ccc(-n3ccnc3)cc2)O1)C(c1ccccc1)c1ccccc1` [Example 14, methyl N-[(1S)-1-benzhydryl-2-[[2-[2-[(2R,6S)-6-[(4-imidazol-1-ylphenoxy)methyl]morpholin-2-yl]ethyl]phenyl]amino]-2-oxo-ethyl]carbamate] belongs 32 nM.
To `COC(=O)N[C@H](C(=O)Nc1ccccc1CC[C@@H]1CNC[C@@H](CSc2ccc(Cl)cc2)O1)[C@@H](c1ccccc1)c1cccnc1` [Example 66, (βS)—N-(2-{2-[(2R,6S)-6-{[(4-chlorophenyl)sulfanyl]methyl}morpholin-2-yl]ethyl}phenyl)-Nα-(methoxycarbonyl)-β-pyridin-3-yl-L-phenylalaninamide] belongs 0.2 nM.
To `COC(=O)N[C@H](C(=O)Nc1ccccc1CC[C@@H]1CNC[C@@H](CSc2ccc(Cl)cc2)O1)C(c1ccccc1)c1ccccc1` [Example 7, methyl N-[(1S)-1-benzhydryl-2-[[2-[2-[(2R,6S)-6-[(4-chlorophenyl)sulfanylmethyl]morpholin-2-yl]ethyl]phenyl]amino]-2-oxo-ethyl]carbamate] belongs 2 nM; to `COC(=O)N[C@H](C(=O)Nc1ccccc1CC[C@@H]1CNC[C@@H](COc2ccc(S(N)(=O)=O)cc2)O1)C(c1ccccc1)c1ccccc1` [Example 55, N-α-(methoxycarbonyl)-β-phenyl-N-[2-(2-{(2R,6S)-6-[(4-sulfamoylphenoxy)methyl]morpholin-2-yl}ethyl)phenyl]-L-phenylalaninamide], 12 nM.

Usually IC50 stands for the midpoint of a concentration-inhibition curve. A high value points to lower potency.
